Test results taken from ChEMBL document CHEMBL4229544, “Design, synthesis and antibacterial properties of pyrimido[4,5-b]indol-8-amine inhibitors of DNA gyrase” (Bioorg Med Chem Lett, 2018).
Converted amounts (≈) assume the structure as drawn.

Experiments:
Type in all cases: functional
[1] = system: Mycobacterium tuberculosis; experiment: Antitubercular activity against rifampicin-resistant Mycobacterium tuberculosis H37Rv harboring RpoB S522L mutant
[2] = system: Mycobacterium tuberculosis; experiment: Antitubercular activity against fluoroquinolone-resistant Mycobacterium tuberculosis H37Rv harboring gyrA D94N mutant
[3] = system: Mycobacterium tuberculosis; experiment: Antitubercular activity against isoniazid-resistant Mycobacterium tuberculosis H37Rv harboring katG Y155 mutant

SMILES	MIC [1] [µg/mL]	MIC [2] [µg/mL]	MIC [3] [µg/mL]
CNc1cc(F)cc2c1[nH]c1nc(CNC(=O)c3cocn3)nc(N3CCC(N)C3)c12 (stereo not drawn)	0.012 (≈ 0.0283 µM)	0.014 (≈ 0.033 µM)	0.013 (≈ 0.0306 µM)
CNc1cc(F)cc2c1[nH]c1nc(CNC(=O)c3cnco3)nc(N3CCC(N)C3)c12 (stereo not drawn)	0.09 (≈ 0.212 µM)	0.09 (≈ 0.212 µM)	0.09 (≈ 0.212 µM)
NNC(=O)c1ccncc1 [ISONIAZID]	0.014 (≈ 0.102 µM)	0.05 (≈ 0.365 µM)	>27
COc1c(N2C[C@@H]3CCCN[C@@H]3C2)c(F)cc2c(=O)c(C(=O)O)cn(C3CC3)c12 [MOXIFLOXACIN]	0.04 (≈ 0.0996 µM)	3.9 (≈ 9.72 µM)	0.04 (≈ 0.0996 µM)
CO[C@@H]1[C@@H](OC(N)=O)[C@@H](O)[C@H](Oc2ccc3c(O)c(NC(=O)c4ccc(O)c(CC=C(C)C)c4)c(=O)oc3c2C)OC1(C)C [NOVOBIOCIN]	13.5 (≈ 22 µM)	7.35 (≈ 12 µM)	6.7 (≈ 10.9 µM)
CO[C@H]1/C=C/O[C@@]2(C)Oc3c(C)c(O)c4c(O)c(c(/C=N/N5CCN(C)CC5)c(O)c4c3C2=O)NC(=O)/C(C)=C\C=C\[C@H](C)[C@H](O)[C@@H](C)[C@@H](O)[C@@H](C)[C@H](OC(C)=O)[C@@H]1C [RIFAMPIN]	3 (≈ 3.65 µM)	0.019 (≈ 0.0231 µM)	0.013 (≈ 0.0158 µM)
